Assay results taken from patent US20030119733A1, “Compositions and methods for inhibiting hepatocyte invasion by malarial sporozoites” (New York University, priority 1992, published 2003).
Entries after “also recorded” stand apart in the source; their conditions may differ. Where no end group is shown, it is not given here. The star is where a group is joined. Cam = NC(=O)C*

What was measured:
[1] = tested on: binding of CSFZ (Cys) to HepG2 cells; assay: Peptide inhibition of CSFZ (Cys) binding to HepG2 cells; set-up: species or system human; conditions: peptides 0-250 μg/ml
Method: For indirect immunofluorescence, HepG2 cells (ATCC number HB8065, Rockville, Md.; Knowles, B. P., et al., Science 209:497-499, 1980) were grown on slides (Cel-Line Associates, Inc., Newfield, N.J.) overnight in minimum essential medium with 10% fetal calf serum (FCS-MEM; GIBCO, Grand Island, N.Y.), 1 mM L-glutamine (GIBCO), 3 mg/ml glucose (Sigma), 1×nonessential amino acids (GIBCO), 50 μg/ml penicillin, and 100 μg/ml streptomycin (GIBCO). For the enzyme-linked immunosorbent assay, 10^5 HepG2 cells were deposited in 96-well Falcon tissue culture plates (Becton Dickinson, Oxnard, Calif.) and grown for 24 hr. in FCS-MEM. The cells were fixed with 4% paraformaldehyde, washed three times with PBS, and stored at 4° C. in BSA/TPBS until use. Before the experiments, plates were blocked for 2 hr. at 37° C. with 1% gelatin, 0.05% Tween in PBS (pH 7.4) (gelatin/TPBS). The cells were sequentially incubated at 37° C. with 50 μl of recombinant protein diluted in gelatin/TPBS for 1 hr. MAb 2A10 at a concentration of 10 μg/ml for 30 min. and goat anti-mouse immunoglobulin conjugated to alkaline phosphatase (Boehringer Mannheim) for 30 min. […] After 15 min., fluorescence was read in a Fluoroskan II plate reader (Flow Lab Inc., McLean, Va.) with excitation filter 350 nm and emission filter 460 nm. In the peptide inhibition experiments, wells were first incubated for 1 hr. at 37° C. with peptides diluted in gelatin/TPBS, washed three times with gelatin/TPBS, and then incubated with recombinant CSFZ (Cys) at a concentration of 2.5 μg/ml for 1 hr. at 37° C.
The same assay system was used to evaluate the ability of the various synthetic peptides to inhibit the binding of CSFZ (Cys) to the HepG2 cells. Paraformaldehyde-fixed immobilized HepG2 cells were pre-incubated with peptides at concentrations between 0 and 250 μg/ml, washed, and incubated with CSFZ (Cys) at 2.5 μg/ml. After washing, the cells were incubated with MAb 2A10 followed by anti-mouse IgG conjugated to alkaline phosphatase. […] Each peptide concentration was assayed in triplicate wells and the means of the fluorescent reading were calculated. […] The cysteines and the sulfhydryl groups were necessary for inhibition (Pf1A, Pf1B and Pf2A were not active). […] The results are shown graphically in FIG. 7 wherein percent inhibition (after subtraction of background) is plotted as a function of peptide concentration. Pf1: open circles; Pf2: dark circles; Pf3: open upright triangles; Pf1A dark square; Pf1B open inverted triangles; Pf2A dark triangle; Pf70 open diamond; Pf25C dark diamond. Standard deviations were no greater than ±5% of the plotted mean.

[2] = tested on: binding of CS27IVC to liver sections; assay: Peptide inhibition of CS27IVC binding to frozen liver sections; set-up: species or system rat; conditions: peptide preincubation, up to 500 μg/ml
Method: The procedure was carried out essentially as described by Dukor P. et al., Proc. Natl. Acad. Sci. USA 67:991-997, 1970 and Imai Y. et al., J. Cell. Biol. 111:1225-1232, 1990. Rats were euthanized with CO2. Small pieces of the liver, spleen, heart, brain and lung were removed, snap frozen in liquid nitrogen, embedded in Tissue Tek O.C.T. (Miles, Inc., Naperville, Ill.), and cut into 5 μm sections. Sections were dried for 30 min., fixed for 10 min. in 4% paraformaldehyde, rinsed three times with phosphate-buffered saline (PBS), and either used immediately or stored at 4° C. in 1% BSA, 0.5% Tween, PBS (BSA/TPBS). After blocking with 100 mM glycine (pH 7.2) and with BSA/TPBS, the sections were sequentially incubated at 37° C. with recombinant proteins for 1 hr, 10 μg/ml MAb 2A10 for 45 min., and rat anti-mouse immunoglobulin conjugated to fluorescein isothiocyanate (Boehringer Mannheim, Indianapolis, Ind.) for 45 min. The slides were counterstained for 10 min. with 0.3% Evans blue, rinsed extensively in PBS, and finally observed under a fluorescence microscope. For peptide inhibition experiments, the sections were first incubated with the peptide at various concentrations in BSA/TPBS for 1 hour at 37° C., washed six times with BSA/TPBS, and then stained with 2.5 μg/ml CS recombinant protein as described above. In a few experiments, the tissues were fixed for 10 min. with methanol, acetone, or 4% paraformaldehyde containing 0.5% glutaraldehyde.

[3] = tested on: Vivax-2 binding to sulfatide; assay: Inhibition of binding of Vivax-2 to sulfatide; set-up: species or system P. vivax; conditions: for effect on binding to sulfatide: 1 mg/ml
Method: (§1) Solid phase binding assays: Thirty μl of lipids or steroids dissolved in methanol (20-250 μg/ml) were dried into wells of microassay plates (Cat.# 3911—Falcon—Oxnard, Calif.). The plates were then blocked with 1% BSA/PBS pH 7.4 (BSA/PBS) for 30 minutes. Wells were incubated with recombinant protein (or with parasite extract) in PBS/BSA for 1 hour, washed 3 times with BSA/PBS, incubated for 1 hour with monoclonal antibodies 2F2 or 2A10 in BSA/PBS, washed 3 times, and then incubated with (10^5 cpm/well) ^125I protein A (Amersham Corp., Arlington Hts., Ill.). In the case of the P. berghei CS protein, wells were incubated with ^125I labelled mAb 3D11. Wells were washed again and the bound radioactive protein was counted in an LKB gamma-counter (model #1260, Pharmacia, Inc., Gaithersburg, Md.). For inhibition assays, the recombinant proteins were mixed with dilutions of the various polymers in BSA/PBS, the mixture was loaded into the wells of the microtiter plates, and the binding assay performed as above. See also, Roberts, et al. J. Biol. Chem. 260:9405-9411, 1985.

[4] = tested on: P. berghei sporozoites; assay: Infection assay of HepG2 cells with polymers; format: cell-based
Method: Infection assay: Semiconfluent monolayers of HepG2 cells were grown in 10% FCS/MEM on 8 chamber slides (#4808 Lab-tek -Naperville, Ill.) for 24 hours prior to each experiment. Sporozoites were pre-incubated in media alone or with the various polymers for 15 minutes at 4° C. 5×10^4 sporozoites, in a volume of 10 μl, were added per chamber. After 4 hours of incubation at 37° C., the medium containing the sporozoites was gently aspirated, and 0.5 ml MEM/10% FCS was added. Fresh medium was added at 18 hours and 28 hours, and then cells were fixed with methanol containing 0.3% H2O2 at 48 hours. After fixation, the wells were blocked with 10% FCS/PBS and were incubated with 10 μg/ml of mAb 2E6. Binding of the mAb was detected with a polyclonal goat anti-mouse Ig conjugated to horseradish peroxidase. […] The parasites in each well are counted under a 40× light microscope objective.
The cells were fixed and stained with mAb 2E6, followed by goat-anti-mouse linked to horseradish peroxidase. Numbers represent schizonts counted/20 fields under 40× magnification in a light microscope.

[5] = tested on: Vivax-2 binding to cholesterol-sulfate; assay: Inhibition of binding of Vivax-2 to cholesterol-sulfate; set-up: species or system P. vivax
Method: as §1

| Substance | inhibition of CSFZ (Cys) binding to HepG2 cells [1] | inhibition of the binding of CS27IVC to liver sections [2] | effect on binding to sulfatide [3] | % INHIBITION ([3]; inhibitor 1 mg/ml) [%] | % INHIBITION ([5]; inhibitor 10 mg/ml) [%] | further results |
| --- | --- | --- | --- | --- | --- | --- |
| AGNGIQVRIKPGSANKPKDE [Pf2A, Identical to Pf2 except the first cysteine has been replaced by an alanine residue] | not active | failed to inhibit | – | – | – | – |
| CGNGIQVRIKPGSANKPKDE [Pf2] | inhibited the CSFZ (Cys) binding; also recorded: competes much less effectively | inhibited the binding of CS27IVC | – | – | – | – |
| KPKHKKLKQPADGNPDPNAN [Pf70] | no inhibitory effect | failed to inhibit | – | – | – | – |
| PASVTAGNGIQVRIKPGSAN [Pf1A, Identical to Pf1 except alanine residues are substituted for the two cysteines] | not active | failed to inhibit | – | – | – | – |
| PCSVTCGNGIQVRIKPGSAN [Pf1] | inhibited the CSFZ (Cys) binding; also recorded: competes very effectively | inhibited the binding of CS27IVC | – | – | – | – |
| PGSANKPKDELDYANDIEKK [Pf3, Contains only a C-proximal moiety of Region II+] | – | failed to inhibit; also recorded: No inhibition of binding | – | – | – | – |
| PXSVTXGNGIQVRIKPGSAN (PC(Cam)SVTC(Cam)GNGIQVRIKPGSAN) [Pf1B] | not active | failed to inhibit | – | – | – | – |
| chondroitin-sulfate A [CHONDROITIN SULFATE-A] | – | – | no effect | 0 | 16 | PARASITE # (exoerythrocytic liver stages in 20 microscope fields, duplicate) ([4]; inhibitor 5 μg/ml present during invasion): 250; effect on sporozoite invasion ([4]; present during invasion, 5-50 μg/ml): no effect; % INHIBITION ([5]; inhibitor 1 mg/ml): 0% |
| chondroitin-sulfate B [CHONDROITIN SULFATE-B] | – | – | only slightly inhibitory | 34.3 | – | % INHIBITION ([3]; inhibitor 100 μg/ml): 22.3%; % INHIBITION ([5]; inhibitor 0 mg/ml (so in the source)): 51%; % INHIBITION ([5]; inhibitor 100 μg/ml): 0%; % INHIBITION ([5]; inhibitor 1 mg/ml): 27% |
| chondroitin-sulfate C [CHONDROITIN SULFATE-C] | – | – | no effect | 0 | 0 | – |
| dermatan sulfate | – | – | no effect | – | – | – |
| hyaluronic acid | – | – | no effect | 0 | 28 | % INHIBITION ([5]; inhibitor 1 mg/ml): 0% |
| keratan-sulfate | – | – | no effect | 37 | 0 | – |
